According to patent US20250283113A1, “COMPOSITIONS AND METHODS FOR INCREASING DELETION EFFICIENCY OF NUCLEIC ACID SEGMENT BY MODULATION OF NHEJ REPAIR PATHWAY” (GenKOre, Inc., priority 2022, published 2025):

Experiments:
XRCC4 [1] = experiment: qRT-PCR of shRNA-mediated inhibition of NHEJ component gene expression (Example 3); type: cell-based, human; settings: AC16 cells, 5 μg shRNA plasmid, 3 days after transfection, FIG. 6
Method: (§1) Purification of total RNA was performed, and reverse transcription of total 1 μg RNA was performed with Superscript IV reverse transcriptase (INVITROGEN) using random hexamers. For real-time PCR, 1/20 of the RT product was amplified with the KAPA SYBR FAST qPCR kit (KAPA BIOSYSTEM, Wilmington, MA, USA) using the real-time cycler Quantstudio (THERMO FISHER SCIENTIFIC). The relative amount of mRNA transcripts was measured by the […]. GAPDH and 18s rRNA were used as endogenous controls.
(§2) 5 μg of plasmid vector encoding shRNA was prepared using All-in-one vector (Biofact), transfected into AC16 cells, and harvested 3 days after transfection. Then, mRNA expression of each NHEJ component gene was measured by qRT-PCR. […] The sequences of sense strands of the shRNAs used are described in Table 9.

XRCC4 [2] = experiment: Western blot of shRNA-mediated inhibition of NHEJ component gene expression (Example 4); type: cell-based, human; settings: AC16 cells, conditions as Example 3, FIG. 7
Method: (§3) Cell extracts were prepared by scraping cells with 60 to 80 μl of RIPA Lysis and Extraction Buffer (THERMOFISHER, 89900) containing protease inhibitor cocktail (ROCHE, 11836153001) at 4° C. and kept on ice for 10 minutes. The concentration of the cleared lysate was measured by Bradford assay (BIO-RAD), in which 20 to 65 μg of protein lysate, depending on the target protein, was loaded onto Mini-PROTEAN® TGX™ Precast Protein Gels (BIO-RAD), electrophoresed, and transferred to PVDF membranes using the Trans-Blot Turbo Transfer System (BIO-RAD). The membrane was incubated at room temperature for 1 hour in a blocking solution containing 5% non-fat dry milk in TBS-T and then incubated at 4° C. overnight with primary antibodies in TBS-T. After incubation with primary antibodies, the membrane was washed four times with TBS-T and then incubated at room temperature for 1 hour in a blocking solution containing anti-rabbit or anti-mouse immunoglobulin conjugated with HRP. The membrane was additionally washed four times with TBS-T and specific protein complexes were visualized with ECL prime (CYTIVA). Antibodies used were against KU70 (CST, 4588S), DNA ligase IV (CST, 146495), XLF (CST, 2854S), Artemis (CST, 13381), GAPDH (CST, 2118L), and XRCC4 (THERMO, MA5-24383).
(§4) shRNA-mediated inhibition of gene expression was analyzed by Western blot analysis. The experimental conditions were the same as in Example 3. […] As a result, the Western blot results were consistent with the qRT-PCR results.

Dclre1c [3] = experiment: qRT-PCR of murine Dclre1c mRNA after shRNA treatment in Hepa-1c1c7 cells (Example 11); type: cell-based, mouse; settings: shRNA under U6 promoter, FIG. 14
Method: as §1
shRNAs for the Dclre1c gene encoding mouse Artemis protein were selected in Hepa-1c1c7 cells. The shRNAs, which are expressed under the U6 promoter, were generated, and qRT-PCR was performed to measure of the Dclre1c mRNA levels. […] The thus selected shRNAs can be used for in vivo studies using mouse models (for example, DMD mouse model with endogenous murine Dclre1c gene).

Dystrophin Exon 51, E51 [4] = experiment: Quantification of large-scale deletion of E51 by qPCR in HEK293T cells (Example 7); type: cell-based, human; settings: 3 days, shRNA + UnCas12f1 + gRNA pair F142/R52, qPCR, compared among shDCLRE1C-2, -3, -5, FIG. 10A
Method: Quantitative real-time PCR was used to quantify genomic DNA. Primer sequences were designed for each of the E51 internal regions where large-scale deletion occurs. For qPCR, 20 ng of gDNA was amplified with the KAPA SYBR FAST qPCR kit (KAPA BIOSYSTEM, Wilmington, MA, USA) using the real-time cycler Quantstudio (THERMO FISHER SCIENTIFIC).
(§5) The efficiency of large-scale deletion was analyzed by qPCR 3 days after treatment of HEK293T cells with the selected shRNA (shDCLRE1C-2, -3, or -5)+UnCas12f1 and a pair of gRNA (F142/R52), and the results are shown in FIG. 10A.
For shDCLRE1C and shXRCC6 among the shRNAs selected in Example 4, experiments were conducted in the same manner as in Example 7.1 using the two shRNAs alone, in combination, or one shRNA thereof in two copies, to analyze the efficiency of large-scale deletion of E51.

DCLRE1C [5] = experiment: DCLRE1C mRNA level by qPCR in HEK293T cells (Example 7.1); type: cell-based, human; settings: 3 days, compared among shDCLRE1C-2, -3, -5, FIG. 10B
Method: as §1, §5

Dystrophin Exon 51, E51 [6] = experiment: Whole genome sequencing (WGS) analysis of E51 deletion efficiency (Example 8); type: cell-based, human; settings: HEK293T cells, UnCas12f1 + gRNA pair F142/R52, 5 days after transfection, shRNA in two copies (shDC-3×2), FIG. 11
Method: HEK293T cells were transfected with UnCas12f1, a pair of gRNA (F142/R52), and shRNA, and then harvested 5 days after transfection. Genomic DNA was purified using a gDNA prep kit (Maxwell® RSC Cultured Cells DNA, PROMEGA, AS1620). 400 to 500 ng of genomic DNA was fragmented, and libraries were prepared using the MGIEasy FS DNA Library Prep. Kit (MGI Tech) according to the manufacturer's instructions. The libraries were then subjected to WGS using DNBSEQ-T7 (MGI Tech). Sequence reads were mapped to the human genome reference standard, GRCh38. Large-scale deletion efficiency was analyzed by counting reads mapped to the deleted region between a pair of gRNAs, and counts per million (CPM) was calculated. The percentage of deletion was calculated based on the difference in CPM between the sample and the control.
HEK293T cells were transfected with UnCas12f1, a pair of gRNA (F142/R52), and shRNA, and then harvested 5 days after transfection. gDNA was prepared therefrom for WGS that is performed to verify large-scale deletion efficiency. To compare the degree of deletion between the two gRNAs which is induced at both sides of E51, reads were mapped to the reference standard sequence and counting was performed within the deleted region. The data were presented as CPM (Count Per Million) along with each read count. […]

DCLRE1C [7] = experiment: qRT-PCR of mRNA expression in AC16 cells transfected with candidate shRNAs (Example 12.1); type: cell-based, human; settings: 5 ug, 3 days, among the five shDCLRE1C shRNAs, FIG. 17
Method: as §1
Candidate shRNAs for six genes known to be involved in the NHEJ repair pathway were transfected into previously prepared AC16 cells at a dose of 5 ug, and incubation was performed for 3 days. Then, the cells were harvested and qRT-PCR was used to measure the mRNA expression levels of the genes. The results are shown in FIG. 15 (ATM1 and XRCC4), FIG. 16 (XLF-1 and XRCC6), and FIG. 17 (LIG4 and DCLRE1C). From the results, the optimal shRNAs were selected. Scrambled indicates the control shRNA.

DCLRE1C [8] = experiment: qRT-PCR of shRNA-mediated inhibition of NHEJ component gene expression (Example 3); type: cell-based, human; settings: AC16 cells, 5 μg shRNA plasmid, 3 days after transfection, FIG. 6
Method: as §1, §2

Artemis = experiment: Western blot of shRNA-mediated inhibition of NHEJ component gene expression (Example 4); type: cell-based, human; settings: AC16 cells, conditions as Example 3, FIG. 7
Method: as §3, §4

Dystrophin Exon 51, E51 [9] = experiment: E51 deletion by UnCas12f1 with shRNA, agarose gel of PCR-amplified E51 region and band intensity analysis (Examples 5, 6); type: cell-based, human; settings: HEK 293T cells, Image J analysis of FIG. 8, comparison between shRNAs, FIG. 9
Method: A pair of guide RNAs for the targets F142 and R52 as shown in Table 14 was used to induce E51 deletion. In order to accurately find the optimal shRNA for a large-scale deletion strategy, comparison of the deletion efficiency altered by the selected shRNAs was conducted in HEK 293T cells. The E51 deletion efficiency was measured on an agarose gel in which the PCR-amplified E51 region was decomposed. From the results, it can be seen that treatment with shRNA increases the E51 deletion efficiency caused by UnCas12f1 .
To compare the large-scale deletion efficiency between various treatments with shRNA, intensity analysis was conducted on the deletion band (Del) and the non-deletion band (WT) in FIG. 8, and the relative values were calculated using Image J software.

XRCC6 = experiment: qRT-PCR of shRNA-mediated inhibition of NHEJ component gene expression (Example 3); type: cell-based, human; settings: AC16 cells, 5 μg shRNA plasmid, 3 days after transfection, FIG. 6
Method: as §1, §2

KU70 = experiment: Western blot of shRNA-mediated inhibition of NHEJ component gene expression (Example 4); type: cell-based, human; settings: AC16 cells, conditions as Example 3, FIG. 7
Method: as §3, §4

XLF [10] = experiment: qRT-PCR of shRNA-mediated inhibition of NHEJ component gene expression (Example 3); type: cell-based, human; settings: AC16 cells, 5 μg shRNA plasmid, 3 days after transfection, FIG. 6
Method: as §1, §2

XLF [11] = experiment: Western blot of shRNA-mediated inhibition of NHEJ component gene expression (Example 4); type: cell-based, human; settings: AC16 cells, conditions as Example 3, FIG. 7
Method: as §3, §4

LIG4 = experiment: qRT-PCR of shRNA-mediated inhibition of NHEJ component gene expression (Example 3); type: cell-based, human; settings: AC16 cells, 5 μg shRNA plasmid, 3 days after transfection, FIG. 6
Method: as §1, §2

DNA ligase IV = experiment: Western blot of shRNA-mediated inhibition of NHEJ component gene expression (Example 4); type: cell-based, human; settings: AC16 cells, conditions as Example 3, FIG. 7
Method: as §3, §4

ATM1 [12] = experiment: qRT-PCR of shRNA-mediated inhibition of NHEJ component gene expression (Example 3); type: cell-based, human; settings: AC16 cells, 5 μg shRNA plasmid, 3 days after transfection, FIG. 6
Method: as §1, §2

ATM1 [13] = experiment: Western blot of shRNA-mediated inhibition of NHEJ component gene expression (Example 4); type: cell-based, human; settings: AC16 cells, conditions as Example 3, FIG. 7

Sequence: GAAUCCACCUUUGUUUCUGA (sense GAAUCCACCUUGUUUCUGA; part of shRNA hairpin, further chemistry not given here) [XRCC4-3]
- mRNA expression of NHEJ component gene XRCC4 (XRCC4 [1]): most effective
- inhibition of XRCC4 expression by Western blot (XRCC4 [2]): effectively reduced expression of the target genes

Sequence: GAGCUGGGAGUUCAGGUUCA (listed as RNA, chemistry not given here) [shDclre1c-12]
- Dclre1c mRNA level (Dclre1c [3]): greatest decrease

Sequence: GCACCGCAAGCCUUCUAUA (listed as RNA, chemistry not given here) [shDclre1c-3]
- deletion level (efficiency of large-scale deletion of E51) (Dystrophin Exon 51, E51 [4]): highest deletion level
- DCLRE1C mRNA level (DCLRE1C [5]): most effectively downregulates DCLRE1C expression
- mapped reads in the deleted region (CPM) (Dystrophin Exon 51, E51 [6]): decreased

Sequence: GCAGAAUUCUUCCCAGUCAUUCAAGAGAUGACUGGGAAGAAUUCUGC (short hairpin RNA, further chemistry not given here) [shDCLRE1C5]
- mRNA expression inhibition efficiency (DCLRE1C) (DCLRE1C [7]): highest mRNA expression inhibition efficiency

Sequence: GCAGAGCUCUCCUUUCACA (sense GCAGAGCUCUCGUUUCACA; part of shRNA hairpin, further chemistry not given here) [DCLRE1C-3]
- mRNA expression of NHEJ component gene DCLRE1C (DCLRE1C [8]): most effective
- inhibition of DCLRE1C (Artemis) expression by Western blot (Artemis): effectively reduced expression of the target genes
- large-scale deletion efficiency (relative intensity of deletion band vs non-deletion band) (Dystrophin Exon 51, E51 [9]): most effective

Sequence: GCAGAGCUCUCGUUUCACAUUCAAGAGAUGUGAAACGAGAGCUCUGC (short hairpin RNA, further chemistry not given here) [shDCLRE1C3]
- mRNA expression inhibition efficiency (DCLRE1C) (DCLRE1C [7]): highest mRNA expression inhibition efficiency

Sequence: GCAGCAUUGUGCAGAUACA (listed as RNA, chemistry not given here) [XRCC6-1]
- mRNA expression of NHEJ component gene XRCC6 (XRCC6): most effective
- inhibition of XRCC6 (KU70) expression by Western blot (KU70): effectively reduced expression of the target genes

Sequence: GCAUGAGUCUGGCAUUACA (listed as RNA, chemistry not given here) [XLF-1]
- mRNA expression of NHEJ component gene XLF (XLF [10]): most effective
- inhibition of XLF expression by Western blot (XLF [11]): effectively reduced expression of the target genes

Sequence: GCAUGAUCCUUCUGUAGGA (listed as RNA, chemistry not given here) [LIG4-5]
- mRNA expression of NHEJ component gene LIG4 (LIG4): most effective
- inhibition of LIG4 (DNA ligase IV) expression by Western blot (DNA ligase IV): effectively reduced expression of the target genes

Sequence: GGACAAAGCUGACUACAGAUUCAAGAGAUCUGUAGUCAGCUUUGUCC (short hairpin RNA, further chemistry not given here) [shDCLRE1C2]
- mRNA expression inhibition efficiency (DCLRE1C) (DCLRE1C [7]): highest mRNA expression inhibition efficiency

Sequence: GGAGCUGAUUGUAGCAACA (listed as RNA, chemistry not given here) [ATM-3]
- mRNA expression of NHEJ component gene ATM (ATM1 [12]): most effective
- inhibition of ATM expression by Western blot (ATM1 [13]): effectively reduced expression of the target genes
